From publication PMC10424185, “C-2 Thiophenyl Tryptophan Trimers Inhibit Cellular Entry of SARS-CoV-2 through Interaction with the Viral Spike (S) Protein” (Journal of Medicinal Chemistry, 2023)

Assays:
[1] = system: SARS-CoV-2 virus carrying the D614G S mutation; type: cell-based
[2] = system: SARS-CoV-2 virus carrying the D614G S mutation; type: cell-based; remark: listed apart in the source

| SMILES | relative virus production vs mock-treatment, A549-ACE2 cells [1] | relative virus production vs mock-treatment, VeroE6-TMPRSS2 cells [2] |
| --- | --- | --- |
| CCC(CC)COC(=O)[C@H](C)N[P@](=O)(OC[C@H]1O[C@@](C#N)(c2ccc3c(N)ncnn23)[C@H](O)[C@@H]1O)Oc1ccccc1 [remdesivir, reference compound] | 0.002 ± 0.002 | 0.002 ± 0.001 |
| NCCOCCOCCC(=O)NCC(=O)NC(CCC(=O)NC(Cc1c(Sc2ccc([N+](=O)[O-])cc2)[nH]c2ccccc12)C(=O)O)(CCC(=O)NC(Cc1c(Sc2ccc([N+](=O)[O-])cc2)[nH]c2ccccc12)C(=O)O)CCC(=O)NC(Cc1c(Sc2ccc([N+](=O)[O-])cc2)[nH]c2ccccc12)C(=O)O (stereo not shown) [Compound 63] | 0.035 ± 0.032 | 0.059 ± 0.018 |
